In patent US20100166726A1, “COMPOSITIONS FOR IMPROVING CELLULAR UPTAKE OF A CHEMOTHERAPEUTIC AGENT IN A CELL EXHIBITING MUCIN DEREGULATION” (NORTHEASTERN UNIVERSITY, priority 2007, published 2010):

Assays:
Capan-1 cells [1] = assay: Cytotoxic activity of chemotherapeutic agents with or without benzyl-α-GalNAc pretreatment, sulforhodamine B assay; assay type: cell-based, human; conditions: benzyl-α-GalNAc 48 hr, then drug 24 hr
Method: Human pancreatic cancer cell morphology was visualized using light microscopy. Six hydrophilic chemotherapeutic agents namely cisplatin, gemcitabine, carboplatin, methotrexate, doxorubicin, vinblastine and six lipophilic agents namely lomustine, busulfan, camptothecin, etoposide, teniposide and paclitaxel with molecular weights ranging from approximately 200 to 900 were used. Two different concentrations of each drug type were evaluated in the presence and absence of heavily O-glycosylated chains with Benzyl-α-GalNAc as O-glycosylation inhibitor. Cell viability was determined using Sulforhodamine B assay. The percent change in cell viability was used to assess the overall benefit of reducing mucin in Capan-1 cells when different cytotoxic drugs are employed.
The growth inhibitory effect of the chemotherapeutic agent after 24 hr of exposure was determined by sulforhodamine B assay and percent of viable cells was calculated as follows: […]

Capan-1 cells [2] = assay: Cell viability and morphology after removal of benzyl-α-GalNAc; assay type: cell-based, human
Method: (§1) These experiments were conducted to determine whether the successful elimination of the glycosylated functional groups surrounding the MUC1 peptide core limit the capacity of cells to proliferate once benzyl-α-GalNAc has been removed. A significant change in cells' ability to multiply and divide due to exposure to benzyl-α-GalNAc would affect the measure of MUC1's role in our experiment. Capan-1 and HPAF-II cells were exposed to benzyl-α-GalNAc for 48 hr. Percent of cell viability was determined 24 hr, 48 hr, and 72 hr after removal of benzyl-α-GalNAc. […] Following 48 hr exposure to benzyl-α-GalNAc cells were washed with 1×PBS and then allowed to grow for an additional 24 hr, 48 hr, and 72 hr in fresh media.

HPAF-II cells [3] = assay: as above; assay type: cell-based, human
Method: as §1

Capan-1 cells [4] = assay: Cellular toxicity of benzyl-α-GalNAc, sulforhodamine B assay; assay type: cell-based, human; conditions: 72 hr exposure
Method: (§2) O-glycosylation is critical for mucin formation. […] These cellular toxicity studies were performed as follows.

HPAF-II cells [5] = assay: as above; assay type: cell-based, human; conditions: 72 hr exposure
Method: as §2

Capan-1 cells [6] = assay: Anti-MUC1 (CD227) antibody association after benzyl-α-GalNAc exposure (microplate fluorescence, FACS); assay type: cell-based, human
Method: (§3) In order to determine whether the concentrations of benzyl-α-GalNAc employed are sufficient to inhibit MUC1 O-glycosylation, we observed the alterations in anti-MUC1 (CD227) association after exposure to the inhibitor. The antibody association studies were performed as follows. […] After each exposure time point the cells were washed with 1×PBS and 1 ml of fresh media was added to each well. The cells were then exposed to 4 μl/well of anti-MUC1 antibody.
(§4) Fluorescence-activated cell-sorting (FACS) analysis was then performed as follows. […] After 48 hr exposure to benzyl-α-GalNAc cells were washed with 1×PBS and 1 ml of fresh media was added to each well. The cells were then exposed to 4 μl/well of CD227 antibody. Following 24 hr incubation with the antibody, cells were washed with 1×PBS to remove any unassociated antibody and cells were detached using 0.5 ml/well trypsin. Cells were then washed with 1×PBS and antibody association was determined using FACS analysis.

HPAF-II cells [7] = assay: as above; assay type: cell-based, human
Method: as §3, §4

HPAF-II cells [8] = assay: 5-FU cytotoxicity with or without benzyl-α-GalNAc pre-exposure, sulforhodamine B assay; assay type: cell-based, human; conditions: 48 hr exposure followed by 5-FU (108 μmol/ml) 24 hr
Method: The effects of increasing benzyl-α-GalNAc concentrations on cytotoxicity of 5-FU (108 μmol/ml) against HPAF-II cells was first tested. […] The growth inhibitory effect of 5-FU after 24 hr of exposure was determined using sulforhodamine B (Sigma-Aldrich, St. Louis, Mo.) assay the percent of viable cells was calculated as follows: […]

HPAF-II tumors = assay: MUC1 carbohydrate staining of tumors after intratumoral benzyl-α-GalNAc; assay type: in vivo, SCID mice; conditions: four intratumoral injections (10 mg/ml, 0.1 cc) at intervals of 48 hr
Method: (§5) All animal work was performed in the animal facility at Northeastern University, Boston, Mass. in accordance with the institutional guidelines. Female SCID (severe combined immunodeficient mice), 6 to 8 weeks old purchased from Massachusetts General Hospital, Boston, Mass. were used for our study since they have been used successfully for developing human xenografts of pancreatic tumors. To establish the tumors, 2.5×10^6 Capan-I cells in 0.1 ml of cell culture medium were injected into the subcutaneous dorsa of all mice. Mice were weighed daily using a digital weighing balance (AccuSeries®, Fisher Scientific, Arvada, Colo.) and tumor volumes were also measured every day using an electronic digital caliper (Control Company, Friendswood, Tex.). Tumor volumes were calculated using the formula a^2×b×0.52, where “a” is the longer diameter and “b” is the shorter diameter. […]
(§6) In order to test the in vivo effect of Benzyl-α-GalNAc in a pancreatic tumor model, Benzyl-α-GalNAc was administered locally into the tumor mass of mice via intratumoral injections (10 mg/ml, 0.1 cc). […] Following intratumoral injections, the sections of subcutaneous Capan-1 and HPAF-II tumors were analyzed for MUC1 carbohydrate staining (FIG. 7B).

Capan-1 tumors [9] = assay: as above; assay type: in vivo, SCID mice; conditions: four intratumoral injections (10 mg/ml, 0.1 cc) at intervals of 48 hr
Method: as §5, §6

U-87 MG cells [10] = assay: Anti-MUC1 (CD227) antibody association after benzyl-α-GalNAc exposure (FACS); assay type: cell-based, human; conditions: 48 hr exposure
Method: as §4

Capan-1 tumors [11] = assay: Anti-tumoral activity in Capan-1 pancreatic tumor model (tumor volume, histochemical staining, neoplastic cell density); assay type: in vivo, SCID mice
Method: All animal work was performed in the animal facility at Northeastern University, Boston, Mass. in accordance with the institutional guidelines. Female SCID (severe combined immunodeficient mice), 6 to 8 weeks old purchased from Massachusetts General Hospital, Boston, Mass. were used for our study since they have been used successfully for developing human xenografts of pancreatic tumors. To establish the tumors, 2.5×10^6 Capan-I cells in 0.1 ml of cell culture medium were injected into the subcutaneous dorsa of all mice. Mice were weighed daily using a digital weighing balance (AccuSeries®, Fisher Scientific, Arvada, Colo.) and tumor volumes were also measured every day using an electronic digital caliper (Control Company, Friendswood, Tex.). Tumor volumes were calculated using the formula a^2×b×0.52, where “a” is the longer diameter and “b” is the shorter diameter. Once the tumor volumes were approximately 50 mm^3-70 mm^3 the experimental groups received intratumoral injections of benzyl-α-GalNAc (0.1 ml injection; 10 mg/ml) whereas […] at intervals of 48 hr. When the tumor volumes were approximately 100 mm^3 5-FU was administered via the intravenous route. Animals in treatment groups received two injections (0.1 ml) of 5-FU at interval of 4 days whereas control mice received saline (0.1 ml). The total dose of 5-FU administered was 125 mg/kg. At the end of the experiment animals were sacrificed, tumor tissue was surgically removed and fixed in 10% formalin at 4° C. for histochemical staining.
For histochemical staining, paraffin-embedded tissue sections (5 μm) were stained with hematoxylin and eosin (H&E) to evaluate and compare the extent of tissue viability. The tumor sections were scanned and qualitative images captured using brightfield microscopy (Olympus BX61WI, NY). The number of tumor cells in each section was quantified using bioquant imaging software and expressed as percent of total tumor area. To quantify the total tumor area we first traced the outline of the entire tumor section in each field of view (FOV). The pixels within the traced area were then selected and the pixel count was determined by the software. A total of five FOV were analyzed to determine the total pixel count of the tumor area. Microscope stage encoders were used to ensure that no tumor area was counted more than once. Similarly the total pixel count of the neoplastic cells featured in blue in each FOV was determined. The total percent of neoplastic cell density was calculated as follows: […]
For these studies the pancreatic cell line, Capan-1 was used to used to establish a pancreatic tumor model. Capan-1 tumors were established in subcutaneous dorsa of female SCID mice (see, Example 7). […] 5-FU therapy began when the tumor size was approximately 100 mm^3.

U-87 MG cells [12] = conditions: 72 hr exposure
Method: In order to determine the contribution of MUC1 expression in the delivery of drugs such as 5-FU to pancreatic tumors, the maximum non-toxic concentration of benzyl-α-GalNAc that could be used to inhibit O-glycosylation of MUC1 was determined from cellular toxicity studies. These cellular toxicity studies were performed as follows. Cells were seeded at 1×10^4 per ml in 48-well plates. Following a 24 hr incubation period at 37° C., cells were exposed to various concentrations of benzyl-α-GalNAc solution (Sigma-Aldrich, St. Louis, Mo.) prepared in media. After 72 hr of cell exposure to benzyl-α-GalNAc, the percent of cell viability was determined using sulforhodamine B assay (Kalra et al., Pharm. Res., 23(12):2809-2817 (2006); Skehan et al., J. Natl. Cancer Inst,. 82:1107-1112 (1990)) and calculated as follows:

[13] = system: Capan-1, HPAF-II, and U-87 MG cells; assay: Cell morphology by DIC microscopy after benzyl-α-GalNAc exposure; assay type: cell-based, human; conditions: 72 hr exposure at maximum non-toxic concentration
Method: To observe the effects of benzyl-α-GalNAc exposure on cell morphology, differential interference contract (DIC) microscopy was employed. Sterile cover slips were placed in six-well plates (Corning, N.Y.). Capan-1, HPAF-II, and U-87 MG cells were next seeded at 1×10^4 per ml in the same 6-well plates.

[14] = 48 hr exposure then fresh media
[15] = 24 hr, 48 hr, or 72 hr exposure at maximum non-toxic concentration

| SMILES | Percent increase in chemotherapeutic activity (chemotherapeutic benefit) when pretreated with benzyl-α-GalNAc (Capan-1 cells [1]) | effect on growth post-removal of inhibitor vs untreated controls (Capan-1 cells [2]; 0.4 mg/ml for 48 hr, then 24 hr, 48 hr, 72 hr in fresh media) | morphology (DIC images) post-removal of inhibitor (Capan-1 cells [2]; [14]) | effect on growth post-removal of inhibitor vs untreated controls (HPAF-II cells [3]; 0.8 mg/ml for 48 hr, then 24 hr, 48 hr, 72 hr in fresh media) | morphology (DIC images) post-removal of inhibitor (HPAF-II cells [3]; [14]) | maximum non-toxic concentration (Capan-1 cells [4]) | maximum non-toxic concentration (HPAF-II cells [5]) | anti-MUC1 (CD227) antibody association, fluorescence intensity vs cells not exposed (Capan-1 cells [6]; [15]) | FACS analysis of CD227 association vs cells not exposed (Capan-1 cells [6]; 48 hr exposure) | anti-MUC1 (CD227) antibody association, fluorescence intensity vs cells not exposed (HPAF-II cells [7]; [15]) | FACS analysis of CD227 association vs cells not exposed (HPAF-II cells [7]; 48 hr exposure) | benzyl-α-GalNAc concentration at which decrease of percent cell viability vs 5-FU alone was significant (HPAF-II cells [8]) | staining for MUC1 O-glycosylation vs tumors not exposed (HPAF-II tumors) | staining for MUC1 O-glycosylation vs tumors not exposed (Capan-1 tumors [9]) | FACS analysis of CD227 association vs cells not exposed (U-87 MG cells [10]) | histochemical staining of tumor sections, neoplastic cells (Capan-1 tumors [11]; H&E stained sections) | tumor volume compared to control tumors (saline group) (Capan-1 tumors [11]; benzyl-α-GalNAc intratumoral days 4, 6, 8, 10, 5-FU intravenous, total 125 mg/kg) | Percent Tumor Area (neoplastic cell density as percent of total tumor area) (Capan-1 tumors [11]; bioquant imaging software, tumor sections at end of experiment) | tolerated concentration (U-87 MG cells [12]) | morphological structures of cells compared to cells not exposed [13] |
| --- | --- | --- | --- | --- | --- | --- | --- | --- | --- | --- | --- | --- | --- | --- | --- | --- | --- | --- | --- | --- |
| N.N.O=C([O-])C1(C(=O)[O-])CCC1.[Pt+2] [Carboplatin] | 33% | – | – | – | – | – | – | – | – | – | – | – | – | – | – | – | – | – | – | – |
| CC(=O)N[C@H]1[C@@H](OCc2ccccc2)O[C@H](CO)[C@H](O)[C@@H]1O [benzyl-α-GalNAc, benzyl-2-acetamido-2-deoxy-α-D-galactopyranoside] | – | No significant effect | no visible morphological changes | No significant effect | no visible morphological changes | 0.4 mg/mL | 0.8 mg/mL | significantly enhanced | shift in fluorescence peaks | significantly enhanced | shift in fluorescence peaks | ≥ 0.4 mg/mL | Lower staining | Lower staining | no shift in peak | dense packing of neoplastic cells | No difference | 28.3 ± 1.8% | > 0.8 mg/mL | no visible difference |
